Assays:
Format in all cases: cell-based
[1] = tested on: Staphylococcus aureus (43330); assay: MIC, broth microdilution, Staphylococcus aureus (43330); settings: pH 3, Mueller Hinton Broth, 18 to 24 hours, read-out: MIC
Experimental: (§1) MIC testing is conducted using the broth (Mueller Hinton Broth) microdilution procedures relevant to each organism group as established by the Clinical and Laboratory Standards Institute (CLSI; 3-7). MIC plates are prepared in accordance with CLSI (3-7). To prepare the test plates, automated liquid handlers are used to conduct serial dilutions and liquid transfers. Automated liquid handlers utilized in this study include the Multidrop 384 (Labsystems, Helsinki, Finland) and the Biomek 2000 (Beckman Coulter, Fullerton CA). The solution is diluted to desired pH using 1 M Citric Acid or 1 M NaOH buffer. A standardized inoculum of each test organism is prepared per CLSI methods (3, 5-7) to equal a 0.5 McFarland standard in the appropriate media followed by an additional 1:20 dilution (1:10 for anaerobes).
(§2) The plates are then inoculated with 10 μL of the diluted 0.5 McFarland suspension using the Biomek 2000 from low to high drug concentration, resulting in a final concentration of approximately 5×10^5 CFU/mL per well. An un-inoculated plate is incubated for the purpose of assessing solubility of the drug in the test media. The plates are stacked 3 to 4 high, covered with a sterile lid on the top plate, and incubated for 18 to 24 hours according to CLSI. The MIC is recorded as the lowest concentration of respective compound that inhibited visible growth of the organism.

Escherichia coli (25922) = assay: MIC, broth microdilution, Escherichia coli (25922); settings: pH 3, Mueller Hinton Broth, 18 to 24 hours, read-out: MIC
Experimental: as §1, §2

[2] = tested on: Pseudomonas aeruginosa (27853); assay: MIC, broth microdilution, Pseudomonas aeruginosa (27853); settings: pH 3, Mueller Hinton Broth, 18 to 24 hours, read-out: MIC
Experimental: as §1, §2

Candida albicans (22972) = assay: MIC, broth microdilution, Candida albicans (22972); settings: pH 3, Mueller Hinton Broth, 18 to 24 hours, read-out: MIC
Experimental: as §1, §2

E. faecalis ATCC-29212 = assay: MIC, broth microdilution, E. faecalis ATCC-29212; parameters: unit not given beside the values; settings: E. faecalis ATCC-29212, Gram +ve; pH 3; 18 to 24 hours
Experimental: as §1, §2

E. faecalis MMX-3353 = assay: MIC, broth microdilution, E. faecalis MMX-3353; settings: E. faecalis MMX-3353, Gram +ve; pH 3; 18 to 24 hours
Experimental: as §1, §2

E. faecium ATCC-35667 = assay: MIC, broth microdilution, E. faecium ATCC-35667; settings: E. faecium ATCC-35667, Gram +ve; pH 3; 18 to 24 hours
Experimental: as §1, §2

E. faecium MMX-3355 = assay: MIC, broth microdilution, E. faecium MMX-3355; parameters: unit not given beside the values; settings: E. faecium MMX-3355, Gram +ve; pH 3; 18 to 24 hours
Experimental: as §1, §2

S. agalactiae ATCC-13813 = assay: MIC, broth microdilution, S. agalactiae ATCC-13813; parameters: unit not given beside the values; settings: S. agalactiae ATCC-13813, Gram +ve; pH 3; 18 to 24 hours
Experimental: as §1, §2

S. aureus ATCC -3591 = assay: MIC, broth microdilution, S. aureus ATCC -3591; parameters: unit not given beside the values; settings: S. aureus ATCC -3591, Gram +ve; pH 3; 18 to 24 hours
Experimental: as §1, §2

S. aureus ATCC-29213 = assay: MIC, broth microdilution, S. aureus ATCC-29213; parameters: unit not given beside the values; settings: S. aureus ATCC-29213, Gram +ve; pH 3; 18 to 24 hours
Experimental: as §1, §2

[3] = tested on: S. dysgalactiae ATCC-6644; assay: MIC, broth microdilution, S. dysgalactiae ATCC-6644; parameters: unit not given beside the values; settings: S. dysgalactiae ATCC-6644, Gram +ve; pH 3; 18 to 24 hours
Experimental: as §1, §2

[4] = tested on: S. haemolyticus ATCC-29970; assay: MIC, broth microdilution, S. haemolyticus ATCC-29970; settings: S. haemolyticus ATCC-29970, Gram +ve; pH 3; 18 to 24 hours
Experimental: as §1, §2

S. pyogenes ATCC-49399 = assay: MIC, broth microdilution, S. pyogenes ATCC-49399; parameters: unit not given beside the values; settings: S. pyogenes ATCC-49399, Gram +ve; pH 3; 18 to 24 hours
Experimental: as §1, §2

[5] = tested on: S. saprophyticus ATCC-49907; assay: MIC, broth microdilution, S. saprophyticus ATCC-49907; parameters: unit not given beside the values; settings: S. saprophyticus ATCC-49907, Gram +ve; pH 3; 18 to 24 hours
Experimental: as §1, §2

A. baumannii ATCC-19606 = assay: MIC, broth microdilution, A. baumannii ATCC-19606; parameters: unit not given beside the values; settings: A. baumannii ATCC-19606, Gram −ve; pH 3; 18 to 24 hours
Experimental: as §1, §2

[6] = tested on: A. radioresistens MMX-8551; assay: MIC, broth microdilution, A. radioresistens MMX-8551; parameters: unit not given beside the values; settings: A. radioresistens MMX-8551, Gram −ve; pH 3; 18 to 24 hours
Experimental: as §1, §2

C. freundii CDC-0157 = assay: MIC, broth microdilution, C. freundii CDC-0157; parameters: unit not given beside the values; settings: C. freundii CDC-0157, Gram −ve; pH 3; 18 to 24 hours
Experimental: as §1, §2

C. striatum ATCC-6940 = assay: MIC, broth microdilution, C. striatum ATCC-6940; settings: C. striatum ATCC-6940, Gram +ve; pH 3; 18 to 24 hours
Experimental: as §1, §2

E. cloacae ATCC BAA-2468 = assay: MIC, broth microdilution, E. cloacae ATCC BAA-2468; parameters: unit not given beside the values; settings: E. cloacae ATCC BAA-2468, Gram −ve; pH 3; 18 to 24 hours
Experimental: as §1, §2

E. coli ATCC-25922 = assay: MIC, broth microdilution, E. coli ATCC-25922; parameters: unit not given beside the values; settings: E. coli ATCC-25922, Gram −ve; pH 3; 18 to 24 hours
Experimental: as §1, §2

E. coli MMX-8870 = assay: MIC, broth microdilution, E. coli MMX-8870; settings: E. coli MMX-8870, Gram −ve; pH 3; 18 to 24 hours
Experimental: as §1, §2

H. influenzae ATCC-49247 = assay: MIC, broth microdilution, H. influenzae ATCC-49247; parameters: unit not given beside the values; settings: H. influenzae ATCC-49247, Gram −ve; pH 3; 18 to 24 hours
Experimental: as §1, §2

[7] = tested on: K. pneumoniae ATCC BAA-2146; assay: MIC, broth microdilution, K. pneumoniae ATCC BAA-2146; parameters: unit not given beside the values; settings: K. pneumoniae ATCC BAA-2146, Gram −ve; pH 3; 18 to 24 hours
Experimental: as §1, §2

K. pneumoniae ATCC-43816 = assay: MIC, broth microdilution, K. pneumoniae ATCC-43816; parameters: unit not given beside the values; settings: K. pneumoniae ATCC-43816, Gram −ve; pH 3; 18 to 24 hours
Experimental: as §1, §2

M. morganii CDC-0519 = assay: MIC, broth microdilution, M. morganii CDC-0519; parameters: unit not given beside the values; settings: M. morganii CDC-0519, Gram −ve; pH 3; 18 to 24 hours
Experimental: as §1, §2

P. aeruginosa ATCC-27853 = assay: MIC, broth microdilution, P. aeruginosa ATCC-27853; parameters: unit not given beside the values; settings: P. aeruginosa ATCC-27853, Gram −ve; pH 3; 18 to 24 hours
Experimental: as §1, §2

P. mirabilis CDC-0155 = assay: MIC, broth microdilution, P. mirabilis CDC-0155; parameters: unit not given beside the values; settings: P. mirabilis CDC-0155, Gram −ve; pH 3; 18 to 24 hours
Experimental: as §1, §2

Compound: CCCCOP(=O)(O)OC[C@H]1O[C@@H](n2ccc(N(C)C)nc2=O)C(F)(F)[C@@H]1O [LAK-023, (2R,3S,5R)-5-(4-N,N-dimethylamino-2-oxopyrimidin-1(2H)-yl)-2,2-difluoro-3-hydroxytetrahydrofuranyl-2-methyl butyl phosphate]
- MIC [1]: 3800 µg/mL
- MIC (Escherichia coli (25922)): 800 µg/mL
- MIC [2]: 400 µg/mL
- MIC (Candida albicans (22972)): > 12500 µg/mL
- MIC (E. faecalis ATCC-29212): 3.13
- MIC (E. faecalis MMX-3353): 6.25
- MIC (E. faecium ATCC-35667): 3.13
- MIC (E. faecium MMX-3355): 1.56
- MIC (S. agalactiae ATCC-13813): 0.39
- MIC (S. aureus ATCC -3591): 6.25
- MIC (S. aureus ATCC-29213): 1.56
- MIC [3]: 0.78
- MIC [4]: 0.78
- MIC (S. pyogenes ATCC-49399): 1.56
- MIC [5]: 1.56
- MIC (A. baumannii ATCC-19606): 0.78
- MIC [6]: 0.78
- MIC (C. freundii CDC-0157): 1.56
- MIC (C. striatum ATCC-6940): 1.56
- MIC (E. cloacae ATCC BAA-2468): 0.78
- MIC (E. coli ATCC-25922): 0.78
- MIC (E. coli MMX-8870): 0.78
- MIC (H. influenzae ATCC-49247): 0.39
- MIC [7]: 0.78
- MIC (K. pneumoniae ATCC-43816): 1.56
- MIC (M. morganii CDC-0519): 3.13
- MIC (P. aeruginosa ATCC-27853): 0.39
- MIC (P. mirabilis CDC-0155): 1.56

Compound: CCCCOP(=O)(O)OC[C@@H]1CC[C@H](n2ccc(N)nc2=O)O1 [LAI-007, ((2S,5R)-5-(4-amino-2-oxopyrimidin-1(2H)-yl)tetrahydrofuran-2-yl)methyl butyl hydrogen phosphate]
- MIC [1]: 5000 µg/mL
- MIC (Escherichia coli (25922)): 25000 µg/mL
- MIC [2]: 5000 µg/mL
- MIC (E. faecalis ATCC-29212): 6.25
- MIC (E. faecalis MMX-3353): 6.25
- MIC (E. faecium ATCC-35667): 6.25
- MIC (E. faecium MMX-3355): 6.25
- MIC (S. agalactiae ATCC-13813): 1.56
- MIC (S. aureus ATCC -3591): 6.25
- MIC (S. aureus ATCC-29213): 6.25
- MIC [3]: 12.50
- MIC [4]: 6.25
- MIC (S. pyogenes ATCC-49399): 3.13
- MIC [5]: 3.13
- MIC (A. baumannii ATCC-19606): 6.25
- MIC [6]: 6.25
- MIC (C. freundii CDC-0157): 3.13
- MIC (C. striatum ATCC-6940): 1.56
- MIC (E. cloacae ATCC BAA-2468): 6.25
- MIC (E. coli ATCC-25922): 6.25
- MIC (E. coli MMX-8870): 12.50
- MIC (H. influenzae ATCC-49247): 1.56
- MIC [7]: 6.25
- MIC (K. pneumoniae ATCC-43816): 12.50
- MIC (M. morganii CDC-0519): 3.13
- MIC (P. aeruginosa ATCC-27853): 8.75
- MIC (P. mirabilis CDC-0155): 3.13

Source: patent publication US20260297118A1, “SUBSTITUTED PYRIMIDINONE AND AZAPYRIMIDINONE COMPOUNDS, COMPOSITIONS, AND USES THEREOF” (LAKEWOOD AMEDEX, INC., priority 2023, published 2026)
